Source: patent publication US6368788B1 (priority 1987, dated 2002)
Values joined by “and” are separate entries in the source; they are usually repeats but may differ in a detail not shown here. Equal entries are not always repeated.

How the values were obtained:
[1] = Frequently ill children with respiratory infection, asthma and allergy (Protocol C); format: in vivo, human
[2] = Influenza symptoms and sinusitis (Protocol F); format: in vivo, human
Procedure: Summary Overview: Fifty-one patients (51) were treated daily for 3-10 days with either 100 μg L-Glu-L-Trp administered im, or 1 μg/kg administered intranasally. A control group of 24 similar patients remained untreated.

[3] = Pleuritis / suppurative lung diseases, combined antibiotic therapy (Protocol K); format: in vivo, human
Procedure: Efficacy of L-Glu-L-Trp in combined antibiotic therapy was evaluated in twelve male patients (aged 18 to 45) with suppurative lung diseases that were poorly responsive to antibiotic therapy and accompanied by diffuse pleuritis, disseminated intravascular coagulation (DIC), pleural effusions, and fever. […] L-Glu-L-Trp was administered to these patients as a treatment of nearly last resort, and as part of the ongoing (unsuccessful) regimen of broad spectrum antibiotic therapy: i.e., 200 μg of L-Glu-L-Trp was administered im daily over a period of 5-7 days. […] In addition, T-cell counts in peripheral blood increased and IgG, IgM, and IgA increased (TABLE 17) and C-reactive protein levels fell (TABLE 16).

[4] = Allergies (hayfever protocol); set-up: species or system human; conditions: in vivo
Procedure: Twenty nine patients (29) with various diagnosed allergies were treated on a daily basis for 5-7 days with L-Glu-L-Trp at a dose of […] delivered im or by the intranasal route. Seventeen patients (17) in the control group received conventional therapy.

[5] = Drug allergies to antibiotics; set-up: species or system human; conditions: in vivo
Procedure: L-Glu-L-Trp was administered to 76 patients having clinical histones of allergies to antibiotics, during the period of administration of the antibiotic. A control group consisted of 43 patients with similar antibiotic drug allergies. L-Glu-L-Trp was administered im on a daily basis for 5-10 days at a dosage of 100 μg, or alternatively, intranasally at a dosage of 1 μg/kg over the same 5-10 day period. […] Allergic reactions were pronounced in the control group with signs of drug intolerance.

[6] = system: peripheral blood lymphocytes; experiment: Protocol A3 Group 1B: atypical pyoderma; format: in vivo, human
Gingivitis = experiment: Gingivitis; set-up: species or system human; conditions: in vivo
Procedure: Patients were treated for gingival disease by subcutaneous administration of L-Glu-L-Trp into the area of the gingiva. […] Approximately 160 patients were studied, 80 patients were treated with L-Glu-L-Trp and an equal number were treated using conventional therapy (control). […] Normalization of immunologic indices and coagulation in the L-Glu-L-Trp treated patients was correlated with favorable clinical outcome.

[7] = system: E-rosette forming (CD2^+) T-lymphocytes; experiment: In vitro incubation of the children's lymphocytes: E-rosette forming (CD2+) T-lymphocytes; format: cell-based, human
[8] = system: respiratory viral infections; experiment: Nose, ear and throat infections (acute respiratory disease); set-up: species or system human; conditions: in vivo
Procedure: One hundred eighty six subjects (186) with diagnosed acute respiratory disease, including upper airway diseases and viral infections, were treated with L-Glu-L-Trp. A control group consisted of 87 untreated subjects. L-Glu-L-Trp was administered daily im or intranasally at a dosage of 100 μg on each of 3-7 consecutive days. […] Secondary infectious complications were diminished in the treated individuals, and the length of time that medical follow-up was required was also diminished.

Chronic osteomyelitis = experiment: Chronic osteomyelitis; set-up: species or system human; conditions: in vivo
Procedure: L-Glu-L-Trp was administered to 176 patients with chronic osteomyelitis of various etiology and bone localizations. The control group consisted of 88 patients receiving conventional treatment. L-Glu-L-Trp was administered im as a single daily dosage of 100 μg, or intranasally at a dose of 1 μg/kg daily, over a period of 10 days.

[9] = system: resident peritoneal macrophages; experiment: Innate immunity in CBA mice: thymic and spleen mass, splenic lymphocytes, resident peritoneal macrophages; format: in vivo; conditions: for Spleen / Thymus: CBA mice; for NBT Reduction, Induced: macrophages induced with complement opsonized zymosan; for NBT Reduction, Spontaneous / Neutral Red Uptake Absorbance: resident peritoneal macrophages
[10] = system: Mycobacterium tuberculosis; set-up: species or system human; conditions: in vivo
[11] = Group 1B atypical pyoderma, after L-Glu-L-Trp Therapy (n = 10)

## L-Glu-L-Trp
[1]; 6-12 months
  Children with a decrease in the number of respiratory infections: 92.9%
[1]; after first course
  T-lymphocytes in peripheral blood: statistically significant increase was noted in both the absolute number and percentage of T-lymphocytes
[1]; asthma patients
  Reduction in attacks of bronchial asthma: 4.2 fold
[1]; in vivo
  Average reduction in the number of infections: 3.6 fold
  Decrease of average length of illness: 4 to 5 days
  Patients in whom food allergies disappeared: 67.8%
[2]; in vivo
  Clinical outcome: reduced nasal mucous swelling, normalization of breathing
[2]; vs control group
  Decrease of total duration of patient treatment: up to 1.7 fold
[3]; 200 μg im daily 5-7 days
  Clinical outcome: A dramatic change in the clinical picture was observed in all 12 patients
[3]; After L-Glu-L-Trp Therapy
  ATIII: 98.3 ± 15.3 % of normal
  Clotting time (citrated whole blood-recalcified): 146.5 ± 28.2
  FDP: 21.7 ± 0.8 µg/mL
  Fibrinogen Concentration: 4.7 ± 1.2 g/L
  Fibrinolytic Activity: 181.2 ± 52.2 min
  Kaolin-Cephalin clotting time: 61.7 ± 6.1
[4]
  Clinical outcome: disappearance of allergic reactions
[5]
  Patients in whom development of allergic reactions was prevented: 70%
[6]; [11]
  B-Lymphocytes: 0.14 ± 0 ×10^9/L
  B-Lymphocytes % Normal Value: (29%)
  B-Lymphocytes (%): 8.5 ± 1%
  Basophils (%): 0.1 ± 0%
  Eosinophils (%): 0.5 ± 1%
  Erythrocytes: 4.1 ± 0.1 10^12/L
  IgA: 2.21 ± 0 g/L
  IgA % Normal Value: (117%)
  IgG: 16.6 ± 2 g/L
  IgG % Normal Value: (154%)
  IgM: 1.64 ± 0 g/L
  IgM % Normal Value: (104%)
  Leukocytes: 6.2 ± 1 ×10^9/L
  Leukocytes % Normal Value: (93%)
  Lymphocytes: 2.14 ± 0 ×10^9/L
  Lymphocytes % Normal Value: (76%)
  Lymphocytes, %: 34.5 ± 4%
  Monocytes, %: 2.3 ± 1.6%
  Neutrophils, %: 66.5 ± 3.2%
  T-Lymphocytes: 0.87 ± 0 ×10^9/L
  T-Lymphocytes % Normal Value: (51%)
  T-Lymphocytes (%): 55.1 ± 6%
  T-helper: 0.53 ± 0 ×10^9/L
  T-helper % Normal Value: (40%)
  T-helper (%): 32.1 ± 3%
  T-suppressor: 0.49 ± 0 ×10^9/L
  T-suppressor % Normal Value: (126%)
  T-suppressor (%): 23.1 ± 5%
[6]; Group 1B, L-Glu-L-Trp Therapy
  Blast Transform., Con-A: 96.1 ± 4 % of PBL
  Blast Transform., PHA: 87.5 ± 5 % of PBL
  Blast Transform., Staph-A: 75.3 ± 1 % of PBL
[6]; in vivo
  Clinical outcome: did not turn out to be effective clinically
Gingivitis
  Clinical outcome: arrest of gingival disease
[7]
  Percentage of E-rosette forming (CD2+) T-lymphocytes: increase in the percentage of E-rosette forming (CD2^+) T-lymphocytes
[8]
  Clinical outcome: milder course of respiratory viral infections
Chronic osteomyelitis
  Clinical outcome: pronounced positive effect on clinical course
[9]; 0.01 mg/kg ip daily 6 days
  B cells Change (% peptide treated/% control): 1.0
  Splenic lymphocytes: B cells (%): 50.8 ± 3.0%
  Splenic lymphocytes: T cells (%): 41.2 ± 2.1 %
  T cells Change (% peptide treated/% control): ↑ 1.1
  Spleen: 69.8 ± 2.6 mg
  Thymus: 14.8 ± 1.6 mg
[9]; 0.01 mg/kg, not statistically different from control
  Increase in neutral red uptake by macrophages: 75%
[9]; 1 mg/kg and 0.01 mg/kg ip, 6 days
  Thymic weight: statistically significant decrease in thymic weight at both dosages
[9]; 1.0 mg/kg ip daily 6 days
  B cells Change (% peptide treated/% control): 1.0
  Splenic lymphocytes: B cells (%): 52.4 ± 1.71%
  Splenic lymphocytes: T cells (%): 34.8 ± 2.5%
  T cells Change (% peptide treated/% control): ↓ 0.9
  Spleen: 88.4 ± 4.4 mg
  Thymus: 14.1 ± 1.3 mg
[9]; macrophages from treated animals
  Increase in NBT reducing activity on induction with complement-opsonized zymosan: 1.75 fold and 2 fold
[9]; 0.01 mg/kg
  NBT Reduction, Induced: 0.205 ± 0.012 OD540
  NBT Reduction, Spontaneous: 0.101 ± 0.002 OD540
  Neutral Red Uptake Absorbance: 0.604 ± 0.031
[9]; 1 mg/kg
  NBT Reduction, Induced: 0.116 ± 0.008 OD540
  NBT Reduction, Spontaneous: 0.059 ± 0.003 OD540
  Neutral Red Uptake Absorbance: 0.469 ± 0.016
[10]
  Clinical outcome at 2 months: disappearance of toxic symptoms, a resorption of pulmonary infiltrates, and a resolution of pulmonary cavities
  Considerable Improvement, % of patients: 24%
  Considerable Improvement, No. of patients: 9
  Improvement, % of patients: 73%
  Improvement, No. of patients: 27
  No Change, % of patients: 3%
  No Change, No. of patients: 1
  Patients with closure of degeneration foci and cavities in the lungs: 35 of the 37
  Patients with “improvement”: 27
  Response rate: 97%
